Measured values taken from paper PMC11831592, “Repurposing Linezolid in Conjunction with Histone Deacetylase Inhibitor Access in the Realm of Glioblastoma Therapies” (Journal of Medicinal Chemistry, 2025).
Where two headings read alike, the source gives them in different places.

Key:
Primary Mouse Neuron = test: CCK8 assay, primary culture neurons; format: cell-based
Procedure: The human glioblastoma cell lines U87MG (HTB-14), T98G (CRL-1690), and A172 (CRL-1620) were provided by the American Type Culture Collection (Manassas, VA, USA). The patient-derived cell line PT#3 was purified under the approval of the Institutional Review Board of Taipei Medical University (TMU) (No. 201006011). The murine astrocytoma cell line CT-2A (SCC194) was purchased from Merch Millipore (MA, USA). TMZ-resistant cell lines were established as described previously.[40] All cell lines were cultured in Dulbecco’s modified Eagle’s medium basal medium (Cat# 10-013-CM, CORNING, MA, USA), supplemented with 10% fetal bovine serum (Cat# 12676029, Thermo Fisher Scientific, MA, USA), 100 units/mL penicillin, and 100 μg/mL streptomycin (Cat# 15140122, Thermo Fisher Scientific) at 37 °C in the environment of 95% air and 5% carbon dioxide and maintained resistant characteristic with […] of TMZ (Cat# HY-17364, MedChemExpress, NJ, USA). Primary cultured astrocytes and neurons were derived from E17 embryonic mice. […]
Cell viability and drug cytotoxicity were determined by a CCK-8 kit (Cell Counting Kit-8, CK04-13, MD, USA) (CCK8, C0005, Target Molecule Corp., MA, USA) reagent. […] Finally, the OD was 450 nm absorbance and calculated for cell viability.

U87MG-R = test: CCK8 cell proliferation assay, U87MG-R; format: cell-based; settings: Homo sapiens, CCK8, 72 h
Procedure: (§1) Cell viability and drug cytotoxicity were determined by a CCK-8 kit (Cell Counting Kit-8, CK04-13, MD, USA) (CCK8, C0005, Target Molecule Corp., MA, USA) reagent. Cells were seeded 2 × 10^3 per well in the 96-well plate for 24 h, followed by treating at different concentrations of compounds for 72 h. Before the experiment, CCK8 was 10-fold diluted with the culture medium and then incubated with cells for 30 min. Finally, the OD was 450 nm absorbance and calculated for cell viability.

LN229 GBM cells = test: CCK8 cell proliferation assay, LN229; format: cell-based; settings: Homo sapiens, LN-229; LN229, CCK8, 72 h
Procedure: as §1

[1] = test system: CT-2A mouse astrocyte cell line; test: CCK8 cell proliferation assay, CT-2A; format: cell-based; settings: CCK8, 72 h
Procedure: as §1

[2] = test system: GBM, TMZ-resistant GBM, and patient-derived TMZ-resistant GBM cells; test: CCK8 assay, GBM cell panel (range given); format: cell-based; settings: read-out: IC50 values, range over GBM cells
Procedure: as §1

[3] = Adverse reactions in treated tumor-bearing mice; format: in vivo; settings: mice of the orthotopic tumor models
Procedure: For orthotopic inoculation, CT-2A cells (1 × 10^5) or CT-2A-R (2 × 10^5) were suspended in 4 μL of DMEM and implanted into the brain of B6 mice. PT#3-R cells (5 × 10^5) were suspended in 4 μL of DMEM and implanted into the brain of SCID mice. After cell implantation, mice were monitored daily for survival, and their body weight was measured every 3 days starting from the seventh day. The oral vehicle consisted of 40% ethyl oleate, 12% lecithin, 20% propylene glycol, and 28% Triton X-100. Mice were administered 5 μL of vehicle per gram of body weight along with 50 mg/kg TMZ or a combination of TMZ and compound 1. Intraperitoneal injections were administered with DMSO (solvent control), TMZ (10 μg/kg), TMZ (10 μg/kg), and compound 1 (10 or 20 μg/kg). Upon the natural death of the mice, brains were extracted and entrusted to BioTools for sectioning and HE staining.
Supplementary information VIII. Body weight changes in mice administered with vehicle, TMZ, and Compound 1 in vivo.
S-VIII-1. Body weight changes in mice administered with DMSO, TMZ, and Compound 1 intraperitoneally following orthotopic CT-2A tumor implantation .
S-VIII-2. Body weight changes in mice administered with vehicle, TMZ, and Compound 1 intraperitoneally following orthotopic CT-2AR tumor implantation.
S-VIII-3. […]

[4] = test system: Rad51 protein in PT#3R GBM cells; test: Immunoprecipitation and ubiquitination assay; format: cell-based, human; settings: 24 h, IP with anti-Rad51 antibody
[5] = Brain distribution study, UPLC of plasma and brain tissue extract; format: in vivo; settings: mouse, ip, C57BL/6 mice, 360 mg/kg intraperitoneal
Procedure: The liquid chromatography was performed on an Acquity H class UPLC system (Waters Corp., Massachusetts, U.S.) equipped with an ACQUITY Premier PDA eλ detector (Waters Corp., Massachusetts, U.S.) with an autosampler temperature of 15 °C. Separation was performed at 25 °C on a Waters Acquity HSS T3 C18 column (2.1 mm × 100 mm, 1.8 μm particle size) with a gradient elution using A: water (containing 2 mM ammonium acetate and 0.1% formic acid) and B: acetonitrile as the mobile phase. The gradient program is as follows: 96% A (initial), 96% A (1 min), 65% A (7 min), 65% A (7.5 min), 96% A (8 min), and 96% A (12 min). The flow rate was set at 0.5 mL/min, and the injection volume was 3 μL. The UV wavelength was adjusted to 254 nm for compound 1 detection.
Following anesthesia of mice with isoflurane, blood samples were collected via a cardiac puncture. The blood was centrifuged at 2000g for 20 min at 4 °C to obtain plasma. Plasma samples were then mixed with an equal volume of 1 M zinc sulfate heptahydrate solution (cat. no. 221376, Sigma-Aldrich) and allowed to stand for 30 min. Subsequently, the mixture was centrifuged at 12,000g for 30 min at 4 °C, and the supernatant was collected for analysis. Brain tissues were homogenized using a Tenbroeck tissue grinder at a ratio of 5 μL of DMSO per mg of tissue. The homogenates were then centrifuged at 12,000g for 30 min at 4 °C, and the supernatant was collected for analysis.
Compound 1 was prepared in DMSO at a concentration of 180 mg/mL, and […] at 30 mg/mL. C57BL/6 mice were intraperitoneally injected with compound 1 at 360 mg/kg, TMZ at […], or DMSO at 2 μL/g as the control group. Mice were sacrificed by intraperitoneal injection after 30 min, and plasma as well as brain tissue extracts were collected following the aforementioned procedures.

For `O=C(/C=C/c1ccc(CNC[C@H]2CN(c3ccc(N4CCOCC4)c(F)c3)C(=O)O2)cc1)NO` [compound 1, (S,E)-3-(4-((((3-(3-Fluoro-4-morpholinophenyl)-2-oxooxazolidin-5-yl)methyl)ami-no)methyl)phenyl)-N-hydroxyacrylamide], the IC50 (Primary Mouse Neuron) was 65.9 ± 4 µM, the IC50 (U87MG-R) was 16.6 ± 0.45 µM and the IC50 (LN229 GBM cells) was 15.7 ± 0.93 µM. The IC50 [1] was 5.88 ± 0.63 µM, the IC50 [2] was 10.3 to 30.6 µM and the “adverse reactions during the treatment period” value [3] was “without adverse reactions observed”. The Rad51 ubiquitination [4] was “significant increase in Rad51 ubiquitination”, the concentration at 30 min ([5]; brain, read-out: Brain conc.) was 831 ng/mL and the Kp at 0.5 h ([5]; brain/plasma, 30 min, read-out: brain/plasma (B/P) ratio) was 1.27. For the same compound, the concentration at 30 min ([5]; plasma, read-out: Plasma conc.) was 656 ng/mL.
